How the values were obtained:
[1] = biological target: T1, Folylpolyglutamate synthase, mitochondrial (Homo sapiens, UniProt Q05932); experiment: Compound was evaluated for its ability to inhibit Folyl-poly-gamma-glutamyl synthetase
T1 sequence (Q05932 whole entry): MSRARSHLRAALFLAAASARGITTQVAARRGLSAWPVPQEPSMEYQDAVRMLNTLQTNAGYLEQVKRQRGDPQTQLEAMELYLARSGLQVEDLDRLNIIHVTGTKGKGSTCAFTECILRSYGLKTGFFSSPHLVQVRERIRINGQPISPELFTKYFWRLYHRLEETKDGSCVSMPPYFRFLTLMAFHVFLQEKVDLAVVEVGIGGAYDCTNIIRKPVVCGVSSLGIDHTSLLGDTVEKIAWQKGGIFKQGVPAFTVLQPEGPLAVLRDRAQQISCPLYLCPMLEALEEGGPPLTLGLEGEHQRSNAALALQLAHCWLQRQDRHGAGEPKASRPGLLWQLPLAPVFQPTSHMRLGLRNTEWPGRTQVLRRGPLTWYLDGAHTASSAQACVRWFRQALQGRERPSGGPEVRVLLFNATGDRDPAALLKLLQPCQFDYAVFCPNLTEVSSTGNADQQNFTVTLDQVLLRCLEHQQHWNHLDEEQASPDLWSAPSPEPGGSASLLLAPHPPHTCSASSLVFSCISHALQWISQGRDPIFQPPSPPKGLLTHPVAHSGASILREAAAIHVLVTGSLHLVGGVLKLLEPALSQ

[2] = biological target: Glutamate carboxypeptidase 2 (Rattus norvegicus, UniProt P70627); experiment: Compound was evaluated for its ability to inhibit Glutamate carboxypeptidase-II using N-acetyl-L-aspartyl-[3H]L-glutamate as substrate
Chain of Glutamate carboxypeptidase 2 (P70627 whole entry): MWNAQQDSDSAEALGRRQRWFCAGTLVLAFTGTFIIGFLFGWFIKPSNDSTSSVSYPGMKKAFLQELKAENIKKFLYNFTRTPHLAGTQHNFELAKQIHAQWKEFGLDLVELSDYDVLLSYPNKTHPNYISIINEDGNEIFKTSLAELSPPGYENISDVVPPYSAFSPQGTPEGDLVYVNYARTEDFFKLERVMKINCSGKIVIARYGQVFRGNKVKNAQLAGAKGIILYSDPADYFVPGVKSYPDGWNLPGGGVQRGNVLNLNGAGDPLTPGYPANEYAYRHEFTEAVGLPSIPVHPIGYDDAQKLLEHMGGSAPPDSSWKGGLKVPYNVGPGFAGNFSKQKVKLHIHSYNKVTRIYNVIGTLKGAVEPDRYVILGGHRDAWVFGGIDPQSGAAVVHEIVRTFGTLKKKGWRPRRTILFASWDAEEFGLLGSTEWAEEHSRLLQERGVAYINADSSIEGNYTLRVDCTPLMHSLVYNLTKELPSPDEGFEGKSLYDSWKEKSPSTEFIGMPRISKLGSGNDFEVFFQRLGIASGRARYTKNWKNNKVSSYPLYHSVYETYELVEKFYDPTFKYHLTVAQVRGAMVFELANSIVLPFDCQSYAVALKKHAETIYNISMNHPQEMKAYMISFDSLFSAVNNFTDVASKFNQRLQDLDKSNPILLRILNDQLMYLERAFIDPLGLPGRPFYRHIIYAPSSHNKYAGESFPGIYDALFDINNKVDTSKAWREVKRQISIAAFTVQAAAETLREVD

[3] = Compound was evaluated for its ability to inhibit Gamma glutamylhydroxylase

CNc1ccc(C(=O)N[C@@H](CCP(=O)(O)O[C@@H](CCC(=O)O)C(=O)O)C(=O)O)cc1
IC50 [1]: 5700 nM
IC50 [2]: 4 nM

CN(Cc1cnc2nc(N)nc(N)c2n1)c1ccc(C(=O)NC(CCP(=O)(O)OC(CCC(=O)O)C(=O)O)C(=O)O)cc1 (stereo not given)
IC50 [1]: 20 nM
IC50 [2]: 5 nM

Nc1ccc(C(=O)N[C@@H](CCP(=O)(O)O[C@@H](CCC(=O)O)C(=O)O)C(=O)O)cc1
IC50 [1]: 8600 nM
IC50 [3]: > 200000 nM
IC50 [2]: 3 nM

CN(Cc1cnc2nc(N)nc(N)c2n1)c1ccc(C(=O)N[C@@H](CCP(=O)(O)O[C@@H](CCC(=O)O)C(=O)O)C(=O)O)cc1
IC50 [1]: 120 nM
IC50 [3]: > 200000 nM
IC50 [2]: 4 nM
